Assay results published in PubChem BioAssay AID1845195 (Molecular Pharmacology Branch, DTP, NCI, 2023).

Test system: 156681-154-R-J1 tumor spheroid viability
Experiment: Anticancer human tumor 156681-154-R-J1 patient-derived melanoma cell line growth inhibition
Settings: spheroids with HUVEC and MSC; for IC50: curve of first compound; for viability, T/C: stronger effect = lower value
Outline: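 Complex tumor spheroids combined malignant cells with endothelial cells and mesenchymal stem cells. DNA-damaging drugs and DNA repair inhibitors were tested alone and in combination, at half-log dilutions down from clinical Cmax (top 10 microM if Cmax unknown), 0.25% DMSO final.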
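Note: spheroids exposed to compounds for 7 days before readout.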
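Throughout, for viability, T/C: percent of vehicle control viability where 100% = DMSO-treated spheroids.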

With `COc1cc(C)[nH]c(=O)c1CN1CCc2c(Cl)cc(C(OC)C3COC3)c(Cl)c2C1=O` (stereo not given) + Cn1nnc2c(C(N)=O)ncn2c1=O the IC50 (second compound 1 µM) was greater than 10 µM, the IC50 (second compound 3.16 µM) was greater than 10 µM and the IC50 (second compound 10 µM) was greater than 10 µM. It also gave an IC50 (second compound 31.6 µM) greater than 10 µM, an IC50 (second compound 100 µM) greater than 10 µM and a viability, T/C (second compound 1 µM, first compound 0.0316 µM) of 115%. It also gave a viability, T/C (second compound 1 µM, first compound 0.1 µM) of 103%, a viability, T/C (second compound 1 µM, first compound 0.316 µM) of 116% and a viability, T/C (second compound 1 µM, first compound 1 µM) of 115%. For the same molecule, the viability, T/C (second compound 1 µM, first compound 3.16 µM) was 81.2%, the viability, T/C (second compound 1 µM, first compound 10 µM) was 88.5% and the viability, T/C (second compound 3.16 µM, first compound 0.0316 µM) was 107%. For the same molecule, the viability, T/C (second compound 3.16 µM, first compound 0.1 µM) was 144%, the viability, T/C (second compound 3.16 µM, first compound 0.316 µM) was 90.7% and the viability, T/C (second compound 3.16 µM, first compound 1 µM) was 74.9%. It also gave a viability, T/C (second compound 3.16 µM, first compound 3.16 µM) of 127%, a viability, T/C (second compound 3.16 µM, first compound 10 µM) of 130% and a viability, T/C (second compound 10 µM, first compound 0.0316 µM) of 84.5%. It also gave a viability, T/C (second compound 10 µM, first compound 0.1 µM) of 81%, a viability, T/C (second compound 10 µM, first compound 0.316 µM) of 77.7% and a viability, T/C (second compound 10 µM, first compound 1 µM) of 75.2%. For the same molecule, the viability, T/C (second compound 10 µM, first compound 3.16 µM) was 98.7%, the viability, T/C (second compound 10 µM, first compound 10 µM) was 67% and the viability, T/C (second compound 31.6 µM, first compound 0.0316 µM) was 70.2%. For the same molecule, the viability, T/C (second compound 31.6 µM, first compound 0.1 µM) was 56.7%, the viability, T/C (second compound 31.6 µM, first compound 0.316 µM) was 60.4% and the viability, T/C (second compound 31.6 µM, first compound 1 µM) was 58.4%. For the same molecule, the viability, T/C (second compound 31.6 µM, first compound 3.16 µM) was 54%, the viability, T/C (second compound 31.6 µM, first compound 10 µM) was 65.7% and the viability, T/C (second compound 100 µM, first compound 0.0316 µM) was 45%. The viability, T/C (second compound 100 µM, first compound 0.1 µM) was 66%, the viability, T/C (second compound 100 µM, first compound 0.316 µM) was 51.7% and the viability, T/C (second compound 100 µM, first compound 1 µM) was 62.9%. The viability, T/C (second compound 100 µM, first compound 3.16 µM) was 68.7% and the viability, T/C (second compound 100 µM, first compound 10 µM) was 61.4%.

`Cc1cc(C)c(CNC(=O)c2cc(-c3ccc(CN4CCOCC4)cc3)cc3c2cnn3C2CCCC2)c(=O)[nH]1` + CC[C@@]1(O)C(=O)OCc2c1cc1n(c2=O)Cc2cc3c(CN(C)C)c(O)ccc3nc2-1 showed an IC50 (second compound 0.003 µM) greater than 10 µM, an IC50 (second compound 0.00949 µM) greater than 10 µM and an IC50 (second compound 0.03 µM) of 8.49 µM. For the same molecule, the IC50 (second compound 0.0949 µM) was less than 0.0316 µM, the IC50 (second compound 0.3 µM) was less than 0.0316 µM and the viability, T/C (second compound 0.003 µM, first compound 0.0316 µM) was 137%. For the same molecule, the viability, T/C (second compound 0.003 µM, first compound 0.1 µM) was 111%, the viability, T/C (second compound 0.003 µM, first compound 0.316 µM) was 86.7% and the viability, T/C (second compound 0.003 µM, first compound 1 µM) was 87.8%. The viability, T/C (second compound 0.003 µM, first compound 3.16 µM) was 84.4%, the viability, T/C (second compound 0.003 µM, first compound 10 µM) was 82.9% and the viability, T/C (second compound 0.00949 µM, first compound 0.0316 µM) was 83%. The viability, T/C (second compound 0.00949 µM, first compound 0.1 µM) was 81.6%, the viability, T/C (second compound 0.00949 µM, first compound 0.316 µM) was 73.8% and the viability, T/C (second compound 0.00949 µM, first compound 1 µM) was 84.8%. It also gave a viability, T/C (second compound 0.00949 µM, first compound 3.16 µM) of 84.5%, a viability, T/C (second compound 0.00949 µM, first compound 10 µM) of 79.5% and a viability, T/C (second compound 0.03 µM, first compound 0.0316 µM) of 65.7%. For the same molecule, the viability, T/C (second compound 0.03 µM, first compound 0.1 µM) was 66.6%, the viability, T/C (second compound 0.03 µM, first compound 0.316 µM) was 55.4% and the viability, T/C (second compound 0.03 µM, first compound 1 µM) was 57.7%. It also gave a viability, T/C (second compound 0.03 µM, first compound 3.16 µM) of 49.3%, a viability, T/C (second compound 0.03 µM, first compound 10 µM) of 51% and a viability, T/C (second compound 0.0949 µM, first compound 0.0316 µM) of 23.4%. It also gave a viability, T/C (second compound 0.0949 µM, first compound 0.1 µM) of 17.8%, a viability, T/C (second compound 0.0949 µM, first compound 0.316 µM) of 25.1% and a viability, T/C (second compound 0.0949 µM, first compound 1 µM) of 20.6%. For the same molecule, the viability, T/C (second compound 0.0949 µM, first compound 3.16 µM) was 17.5%, the viability, T/C (second compound 0.0949 µM, first compound 10 µM) was 22.2% and the viability, T/C (second compound 0.3 µM, first compound 0.0316 µM) was 31.3%. It also gave a viability, T/C (second compound 0.3 µM, first compound 0.1 µM) of 29.5%, a viability, T/C (second compound 0.3 µM, first compound 0.316 µM) of 31.8% and a viability, T/C (second compound 0.3 µM, first compound 1 µM) of 30.9%. The viability, T/C (second compound 0.3 µM, first compound 3.16 µM) was 27.6% and the viability, T/C (second compound 0.3 µM, first compound 10 µM) was 30.6%.
